According to DBAASP:
Values after ≈ are worked out from the molar mass of the structure shown.

Key:
Experiment in all cases: ≥ marks a high value that may be exact or a test limit, other limits are often not marked, values filed in µg/mL are converted to µM
[1] = system: Escherichia coli K91BK
[2] = system: Bacillus subtilis var. niger ATCC 9372
[3] = system: Bacillus anthracis Sterne 34F2
[4] = system: Escherichia coli B
[5] = system: Pseudomonas aeruginosa
[6] = system: Candida albicans F7-39/IDE99
[7] = system: Staphylococcus aureus ATCC 43300
[8] = system: Staphylococcus aureus
[9] = system: Pseudomonas aeruginosa ATCC 27853
[10] = system: Staphylococcus epidermidis
[11] = system: Bacillus subtilis 168
[12] = system: Micrococcus luteus CCM 144
[13] = system: Staphylococcus aureus ATCC 25923
[14] = system: Salmonella enterica subsp. enterica serovar Typhimurium ATCC 14028
[15] = system: Bacillus megaterium Bm11
[16] = system: Escherichia coli ML-35
[17] = system: Escherichia coli
[18] = system: Proteus mirabilis
[19] = system: Escherichia coli 363

## CC[C@H](C)[C@H](NC(=O)CNC(C)=O)C(=O)NCC(=O)N[C@@H](CCCCN)C(=O)N[C@@H](Cc1cnc[nH]1)C(=O)N[C@H](C(=O)NCC(=O)N[C@@H](CCCCN)C(=O)N[C@@H](C)C(=O)N[C@@H](CC(C)C)C(=O)N[C@@H](CCCCN)C(=O)NCC(=O)N[C@@H](CC(C)C)C(=O)N[C@@H](CCCCN)C(=O)NCC(=O)N[C@@H](CC(C)C)C(=O)N[C@@H](CC(C)C)C(=O)N[C@@H](CCCCN)C(=O)NCC(=O)N[C@@H](CC(C)C)C(=O)NCC(=O)N[C@@H](CCC(=O)O)C(=O)N[C@@H](CO)C(N)=O)C(C)C [GIGKHVGKALKGLKGLLKGLGES]
[1]
  MIC: ≥ 100 µM
[2]
  MIC: ≥ 100 µM
[3]
  MIC: ≥ 100 µM

## CC[C@H](C)[C@H](NC(=O)CN)C(=O)N[C@@H](CCSC)C(=O)N[C@@H](CO)C(=O)N[C@@H](CO)C(=O)N[C@@H](CC(C)C)C(=O)N[C@@H](CCSC)C(=O)N[C@@H](CCCCN)C(=O)N[C@@H](CCCCN)C(=O)N[C@@H](CC(C)C)C(=O)N[C@@H](CCCCN)C(=O)N[C@@H](C)C(=O)N[C@@H](Cc1cnc[nH]1)C(=O)N[C@H](C(=O)N[C@@H](C)C(=O)N[C@@H](CCCCN)C(N)=O)[C@@H](C)CC [GIMSSLMKKLKAHIAK]
[4]
  MIC: 30 µM (≈ 52.7 µg/mL)
[5]
  MIC: 47 µM (≈ 82.5 µg/mL)
[6]
  MIC: 23 µM (≈ 40.4 µg/mL)
[7]
  MIC: > 100 µM
[8]
  MIC: > 100 µM
[9]
  MIC: 26 µM (≈ 45.6 µg/mL)
[10]
  MIC: 16 µM (≈ 28.1 µg/mL)
[11]
  MIC: 7 µM (≈ 12.3 µg/mL)
[12]
  MIC: 3 µM (≈ 5.27 µg/mL)

## CC[C@H](C)[C@H](NC(=O)[C@H](CCCCN)NC(=O)[C@H](CCCCN)NC(=O)[C@H](Cc1ccccc1)NC(=O)[C@H](CCCCN)NC(=O)[C@H](CCC(=O)O)NC(=O)CNC(=O)[C@@H](NC(=O)[C@H](CCCCN)NC(=O)[C@H](CCCCN)NC(=O)[C@H](CC(C)C)NC(=O)[C@H](Cc1ccccc1)NC(=O)[C@H](CC(=O)O)NC(=O)[C@H](CCCNC(=N)N)NC(=O)[C@H](CC(C)C)NC(=O)[C@H](CCCNC(=N)N)NC(=O)[C@H](CCCNC(=N)N)NC(=O)[C@H](CC(C)C)NC(=O)[C@H](CC(C)C)NC(=O)CN)[C@@H](C)CC)C(=O)NCC(=O)N[C@H](C=O)Cc1ccc(O)cc1 [GLLRRLRDFLKKIGEKFKKIGY]
[13]
  MIC: 4 µM (≈ 10.7 µg/mL)
[14]
  MIC: 4 µM (≈ 10.7 µg/mL)
[8]
  MIC: 2 µM (≈ 5.33 µg/mL)
[15]
  MIC: 1 µM (≈ 2.66 µg/mL)
[16]
  MIC: 4 µM (≈ 10.7 µg/mL)
[17]
  MIC: 4 µM (≈ 10.7 µg/mL)
[18]
  MIC: ≥ 32 µM

## CC[C@H](C)[C@H](NC(=O)[C@H](CCCCN)NC(=O)[C@H](CO)NC(=O)[C@H](Cc1c[nH]c2ccccc12)NC(=O)[C@H](CC(C)C)NC(=O)CN)C(=O)N[C@@H](CCCCN)C(=O)N[C@@H](CCC(=O)O)C(=O)N[C@H](C(=O)NCC(=O)N[C@@H](CCCCN)C(=O)N[C@@H](CCC(=O)O)C(=O)N[C@@H](C)C(=O)N[C@@H](C)C(=O)N[C@@H](CCCCN)C(=O)N[C@@H](C)C(=O)N[C@@H](C)C(=O)N[C@@H](C)C(=O)N[C@@H](CCCCN)C(=O)N[C@@H](C)C(=O)N[C@@H](C)C(=O)NCC(=O)N[C@@H](CCCCN)C(N)=O)C(C)C [GLWSKIKEVGKEAAKAAAKAAGK]
[4]
  MIC: ≥ 50 µM
[5]
  MIC: 100 µM (≈ 231 µg/mL)
[8]
  MIC: > 100 µM
[19]
  MIC: 25 µM (≈ 57.8 µg/mL)
